From patent US20160153002A1, “METHOD FOR CELL MEMBRANE PERMEATION FOR COMPOUND” (HitGen LTD., priority 2013, published 2016) come the findings set out here.

{NH2C12} = amino-(CH2)12 linker attached through a phosphate; {FITC} = fluorescein (FITC) label

For the data set, the system named is HepG2 cells. Put plainly: Transmembrane transfer of FITC-tagged single-stranded or double-stranded DNA/RNA with X-tremeGENEsiRNA reagent, laser confocal microscopy. As to conditions: 4 nmol, 6 h, laser confocal microscope, FIG. 5. The data set is classed as cell-based. As to the method: 24 h before transfer, the HepG2 cells in the phase of logarithmic growth were digested with trypsin; a culture medium containing 10% serum was used for adjusting the cell density to 0.5×10^6 cells/mL; and the cells were inoculated again in a cell culture dish of 15 cm and cultured in a culture incubator containing 5% CO2 at 37° C. The cells may be used for experiments when the cell density reaches 60% to 70% 24 h later.
4 nmol of synthesized single-stranded or double-stranded DNA/RNA fragments in different sequences was added to a sterile centrifuge tube (tube A) of 15 mL, respectively, and uniformly mixed with Opti-MEM in a corresponding volume, with a total volume of 2 mL; the X-tremeGENEsiRNA reagent was shaken gently, and 160 μL of X-tremeGENEsiRNA reagent was mixed with 1.84 mL of Opti-MEM in another tube (tube B); and the solution in the tube A was mixed with the solution in the tube B, the mixture was slightly triturated by a pipette and incubated for 20 min at room temperature.
6 mL of RPMI-1640 serum-free culture medium was added to the mixture and mixed uniformly; the primary culture medium in the HepG2 cell culture dish was discarded, and slightly triturated with RPMI-1640 serum-free culture medium once; and then, the mixture was moved into the HepG2-PT cell culture dish, and cultured in a culture incubator containing 5% CO2 at 37° C. 6 h later, the positioning of the DNA/RNA in the cells was observed by a laser confocal microscope.
As for “double-stranded random sequence fragments of 19 bp: duplex of 5′-NH2-(CH2)12-PO4-TGGGCTGGCCAAACTGCTG-3′-FITC with 3′-ACCCGACCGGTTTGACGAC-5′”, the “positioning of the DNA/RNA in the cells (transfer into cells)” value (shortened to “positioning of the DNA/RNA in the cells”) was “transferred into cells by X-tremesiRNA, with most of them into the cytoplasm and a few of them into the cell nucleus”.

Consider “5′-NH2—(CH2)12—PO4-A19-3′-FITC [polyA of 19 bp]”, for which the “positioning of the DNA/RNA in the cells” value is “transferred into cells by X-tremesiRNA, with most of them into the cytoplasm and a few of them into the cell nucleus”. Consider “5′-NH2—(CH2)12—PO4-A3-3′-FITC [polyA of 38 bp]”, for which the “positioning of the DNA/RNA in the cells” value was “transferred into cells by X-tremesiRNA, with most of them into the cytoplasm and a few of them into the cell nucleus”. Consider “5′-NH2—(CH2)12—PO4-A5-3′-FITC [polyA of 5 bp]”, for which the “positioning of the DNA/RNA in the cells” value was “transferred into cells by X-tremesiRNA, with most of them into the cytoplasm and a few of them into the cell nucleus”. With “5′-NH2—(CH2)12—PO4-TGGGCTGGCCAAACTGCTG-3′-FITC (DNA, 5' {NH2C12}, 3' {FITC}, backbone and methylation of C not given here)” the entry was “transferred into cells by X-tremesiRNA, with most of them into the cytoplasm and a few of them into the cell nucleus”.
